Source: the supplement of paper PMC10307832

Experiments:
Test in all cases: relative viability (nuclei count vs DMSO), 5 days (fraction); higher = more cells survive
[1] = compound: CC[C@@H](C)CNCC(=O)N1CCC2=C([C@@H]1COC3=CC=CC(=C3)C)C=CS2 [RU-SKI 43] + Cc1nc(NC(=O)N2CCC[C@H]2C(N)=O)sc1-c1ccnc(C(C)(C)C(F)(F)F)c1 [Alpelisib] (partner 2 µM)
Procedure, shortened: (§1)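 Nuclei were stained with Hoechst during a one-step fixation (final 0.05% Triton X-100, 1% formaldehyde, 1 ug/ml Hoechst) carried out 5 days after dosing, then counted on 4× images. The cells, lung cancer lines in 1536-well plates, had been dosed by pin tool the day after seeding with one drug alone or a fixed anchor-drug dose plus five library-drug doses (not always all listed) in √10 steps. Relative viability is the nuclei count in treated wells divided by that in vehicle wells, and each value is the median of duplicate plates.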

[2] = compound: CCc1c2c(nc3ccc(OC(=O)N4CCC(N5CCCCC5)CC4)cc13)-c1cc3c(c(=O)n1C2)COC(=O)[C@]3(O)CC [Irinotecan] + Nc1ncn([C@H]2C[C@H](O)[C@@H](CO)O2)c(=O)n1 [Decitabine] (partner 2 µM)
Procedure, shortened: as §1

[3] = compound: Cn1cc(-c2cnc3ccc4ccc(CS(=O)(=O)NCc5ccccn5)cc4c(=O)c3c2)cn1 [MK-8033] + CS(=O)(=O)N1CCN(Cc2cc3nc(-c4cccc5[nH]ncc45)nc(N4CCOCC4)c3s2)CC1 [Pictilisib] (partner 1 µM)
Procedure, shortened: as §1

[4] = compound: Cn1cc(-c2cnc3ccc4ccc(CS(=O)(=O)NCc5ccccn5)cc4c(=O)c3c2)cn1 [MK-8033] + N=C(N)NC(=N)NCCc1ccccc1 [Phenformin] (partner 250 µM)
Procedure, shortened: as §1

Cell Line	relative viability ([1]; first compound 0.1 µM)	relative viability ([1]; first compound 1 µM)	relative viability ([1]; first compound 3.162 µM)	relative viability ([1]; first compound 10 µM)	relative viability ([2]; first compound 0.6325 µM)	relative viability ([2]; first compound 2 µM)	relative viability ([2]; first compound 6.325 µM)	relative viability ([2]; first compound 20 µM)	relative viability ([3]; first compound 0.02 µM)	relative viability ([3]; first compound 0.06325 µM)	relative viability ([3]; first compound 0.2 µM)	relative viability ([3]; first compound 0.6325 µM)	relative viability ([3]; first compound 2 µM)	relative viability ([4]; first compound 0.02 µM)	relative viability ([4]; first compound 0.06325 µM)	relative viability ([4]; first compound 0.2 µM)	relative viability ([4]; first compound 0.6325 µM)	relative viability ([4]; first compound 2 µM)	relative viability ([1]; first compound 0.3162 µM)
LCLC-97TM1	0.215	0.206	0.241	0.234	0.135	0.107	0.105	0.115	0.187	0.148	0.199	0.215	0.19	0.393	0.433	0.456	0.454	0.439	–
SK-LU-1	0.931	1.25	1.13	1.01	0.498	0.504	0.423	0.25	0.658	0.499	0.449	0.54	0.622	0.519	0.505	0.518	0.497	0.53	1.31
NCI-H1395	1.14	0.936	1.29	0.836	–	0.722	0.522	0.301	0.726	0.579	0.683	0.606	0.628	0.448	0.412	0.43	0.45	0.416	1.38
COR-L23	0.87	0.725	0.757	0.815	0.314	0.336	0.192	0.104	0.8	0.731	0.697	0.876	0.823	0.41	0.422	0.402	0.432	0.421	0.657
NCI-H2126	0.769	0.825	0.831	0.727	0.503	0.372	0.295	0.267	0.491	0.393	0.455	0.515	0.491	0.511	0.494	0.497	0.533	0.51	0.82
EPLC-272H	1.12	0.987	–	0.948	–	0.33	0.223	0.151	0.3	–	0.298	0.303	0.294	0.347	0.228	0.359	0.325	0.331	0.968
NCI-H1793	0.676	0.764	0.894	0.686	–	0.315	0.262	0.258	0.32	–	0.286	0.307	0.258	0.383	0.284	0.316	0.394	0.293	0.784
NCI-H2009	1.18	1.2	1.15	1.13	0.358	0.32	0.266	0.135	0.833	0.716	0.732	0.775	0.771	0.524	0.476	0.456	0.482	0.463	1.3
NCI-H2347	1.1	1.13	1.15	0.949	0.652	0.626	0.599	0.547	0.685	0.438	0.597	0.771	0.603	0.442	0.37	0.57	0.59	0.428	1.19
LU99A	0.526	0.5	0.578	0.456	0.196	0.184	0.157	0.169	0.331	0.275	0.318	0.29	0.32	0.859	0.747	0.773	0.845	0.751	0.558
NCI-H1915	0.991	1.12	1.05	1.04	0.216	0.189	0.134	0.126	0.969	0.785	0.914	1	0.861	0.356	0.315	0.373	0.391	0.376	1.14
H3255	0.719	0.773	0.725	0.686	–	0.456	0.266	0.225	0.558	0.299	0.48	0.577	0.441	0.341	0.364	0.335	0.326	0.37	0.834
BEN	1.04	1.07	1.06	1	0.503	0.793	0.493	0.504	0.583	0.454	0.499	0.594	0.541	0.288	0.239	0.269	0.233	0.255	1.13
NCI-H23	0.648	0.81	0.697	0.628	0.288	0.243	0.211	0.251	0.377	0.397	0.378	0.561	0.384	0.795	0.81	0.715	0.857	0.814	0.796
NCI-H1944	0.888	0.843	0.872	0.786	0.323	0.206	0.149	0.151	0.35	–	0.347	0.346	0.34	0.186	0.159	0.19	0.198	0.181	0.815
NCI-H441	0.87	0.573	0.68	0.946	0.208	0.166	0.227	0.324	0.45	0.446	0.416	0.446	0.444	0.997	0.739	0.645	0.955	0.732	0.907
NCI-H1437	0.945	0.964	1.07	0.921	0.586	0.536	0.391	0.334	0.56	0.409	0.384	0.449	0.482	0.293	0.291	0.291	0.324	0.267	1.26
HARA	0.762	0.843	0.69	0.733	0.481	0.318	0.284	0.283	0.445	0.395	0.335	0.382	0.419	0.477	0.406	0.396	0.374	0.422	0.729
LOU-NH91	0.72	0.711	0.681	0.7	0.79	0.768	0.492	0.311	0.531	–	0.498	0.548	0.506	0.716	0.473	0.717	0.715	0.768	0.738
COR-L 105	0.935	0.931	0.916	0.921	0.605	0.586	0.555	0.364	0.413	0.357	0.366	0.424	0.403	0.523	0.395	0.463	0.499	0.476	0.818
NCI-H838	0.975	0.966	0.93	1.02	0.444	0.47	0.277	0.18	0.462	0.447	0.425	0.423	0.394	0.622	0.572	0.524	0.555	0.543	0.969
NCI-H1975	0.692	0.806	0.66	0.583	0.374	0.438	0.342	0.141	0.302	0.266	0.269	0.307	0.315	0.409	0.417	0.405	–	0.364	0.717
SK-MES-1	0.893	1.01	1.15	0.892	0.398	0.483	0.282	0.143	0.334	0.301	0.328	0.405	0.349	0.67	0.622	0.634	0.719	0.671	0.879
NCI-H2170	0.78	0.86	0.826	0.808	0.396	0.222	0.128	0.122	0.382	0.291	0.293	0.32	0.302	0.447	0.424	0.374	0.407	0.399	0.855
NCI-H647	1.2	1.51	1.11	1.1	0.39	0.238	0.157	0.159	0.444	0.421	0.398	0.41	0.471	0.508	0.448	0.509	0.546	0.549	1.56
A-427	1.13	1.18	–	1.02	0.566	0.573	0.347	0.198	0.676	0.7	0.677	0.734	0.644	0.308	0.371	0.289	0.325	0.374	1.16
HCC-366	0.439	0.438	0.572	0.355	0.341	0.212	0.104	0.0739	0.151	0.0933	0.228	0.138	0.142	0.725	0.644	0.601	0.618	0.607	0.53
